According to the supplement of paper PMC10307832:

Key:
Test in all cases: relative viability (nuclei count vs DMSO), 5 days (fraction); higher = more cells survive
[1] = compound: CN(C/C=C/C1=CC=C(C=C1)Cl)CC2=CC=CC=C2N(CCO)S(=O)(=O)C3=CC=C(C=C3)OC [KN-93] + Cc1nc(Nc2ncc(C(=O)Nc3c(C)cccc3Cl)s2)cc(N2CCN(CCO)CC2)n1 [Dasatinib] (partner 0.075 µM)
In short: (§1)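 The day after seeding in 1536-well plates, lung cancer cell lines were treated by pin tool with a single drug, or with a fixed anchor-drug dose together with five library-drug doses (not always all listed) in √10 steps. After 5 days, a combined fix-and-stain solution (final 0.05% Triton X-100, 1% formaldehyde, 1 ug/ml Hoechst) was added. Nuclei counted on 4× images gave relative viability as treated counts over vehicle counts, reported as the median of duplicate plates.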

[2] = compound: CN(C/C=C/C1=CC=C(C=C1)Cl)CC2=CC=CC=C2N(CCO)S(=O)(=O)C3=CC=C(C=C3)OC [KN-93] + CC1(C)CCC(c2ccc(Cl)cc2)=C(CN2CCN(c3ccc(C(=O)NS(=O)(=O)c4ccc(N[C@H](CCN5CCOCC5)CSc5ccccc5)c(S(=O)(=O)C(F)(F)F)c4)cc3)CC2)C1 [Navitoclax] (partner 0.5 µM)
In short: as §1

[3] = compound: CN(C/C=C/C1=CC=C(C=C1)Cl)CC2=CC=CC=C2N(CCO)S(=O)(=O)C3=CC=C(C=C3)OC [KN-93] + COc1cc2c(Oc3ccc(NC(=O)C4(C(=O)Nc5ccc(F)cc5)CC4)cc3F)ccnc2cc1OCCCN1CCOCC1 [Foretinib] (partner 0.25 µM)
In short: as §1

[4] = compound: CN(C/C=C/C1=CC=C(C=C1)Cl)CC2=CC=CC=C2N(CCO)S(=O)(=O)C3=CC=C(C=C3)OC [KN-93] + Cc1cc(Nc2cc(N3CCN(C)CC3)nc(Sc3ccc(NC(=O)C4CC4)cc3)n2)n[nH]1 [Tozasertib] (partner 0.1 µM)
In short: as §1

[5] = compound: CN(C/C=C/C1=CC=C(C=C1)Cl)CC2=CC=CC=C2N(CCO)S(=O)(=O)C3=CC=C(C=C3)OC [KN-93] + Nc1ncn([C@H]2C[C@H](O)[C@@H](CO)O2)c(=O)n1 [Decitabine] (partner 2 µM)
In short: as §1

| Cell Line | relative viability ([1]; first compound 0.08 µM) | relative viability ([1]; first compound 0.253 µM) | relative viability ([1]; first compound 2.53 µM) | relative viability ([1]; first compound 8 µM) | relative viability ([2]; first compound 0.08 µM) | relative viability ([2]; first compound 0.253 µM) | relative viability ([2]; first compound 2.53 µM) | relative viability ([2]; first compound 8 µM) | relative viability ([3]; first compound 0.08 µM) | relative viability ([3]; first compound 0.253 µM) | relative viability ([3]; first compound 2.53 µM) | relative viability ([3]; first compound 8 µM) | relative viability ([4]; first compound 0.08 µM) | relative viability ([4]; first compound 0.253 µM) | relative viability ([4]; first compound 2.53 µM) | relative viability ([4]; first compound 8 µM) | relative viability ([5]; first compound 0.08 µM) | relative viability ([5]; first compound 0.253 µM) | relative viability ([5]; first compound 2.53 µM) | relative viability ([5]; first compound 8 µM) |
| --- | --- | --- | --- | --- | --- | --- | --- | --- | --- | --- | --- | --- | --- | --- | --- | --- | --- | --- | --- | --- |
| NCI-H2347 | 0.322 | 0.273 | 0.288 | 0.245 | 0.696 | 0.843 | 0.794 | 0.543 | 1.12 | 0.656 | 1.25 | 0.593 | 0.587 | 0.55 | 0.618 | 0.505 | 0.57 | 0.617 | 0.643 | 0.539 |
| NCI-H2405 | 0.222 | 0.238 | 0.491 | 0.204 | 0.94 | 0.833 | 0.767 | 0.592 | 1.05 | 0.995 | 1.01 | 0.75 | 0.799 | 0.776 | 0.733 | 0.533 | 0.741 | 0.736 | 0.77 | 0.593 |
| NCI-H3122 | 0.716 | 0.824 | 1.12 | 0.661 | 1.11 | 1.1 | 1.1 | 0.846 | 1.05 | 1.13 | 1.11 | 0.912 | 0.385 | 0.39 | 0.469 | 0.389 | 0.364 | 0.398 | 0.359 | 0.367 |
| PC-3 [JPC-3] | 0.941 | 1.11 | 1.03 | 0.673 | 0.75 | 0.824 | 0.913 | 0.64 | 0.98 | 1.14 | 1 | 0.784 | 0.905 | 0.957 | 0.922 | 0.813 | 0.786 | 0.781 | 0.919 | 0.739 |
| PC-14 | 0.335 | 0.18 | 0.198 | 0.0533 | 0.851 | 1 | 1.21 | 0.977 | 0.797 | 0.988 | 1.12 | 1.01 | 0.642 | 0.544 | 0.583 | 0.21 | 0.205 | 0.2 | 0.244 | 0.194 |
| RERF-LC-KJ | 0.664 | 0.788 | 0.672 | 0.277 | 0.863 | 0.954 | 0.651 | 0.673 | 0.791 | 0.778 | 1.05 | 0.833 | 0.448 | 0.477 | 0.405 | 0.271 | 0.627 | 0.753 | 0.722 | 0.346 |
| SK-LU-1 | 0.192 | 0.179 | 0.188 | 0.17 | 0.748 | 0.849 | 1.3 | 0.538 | 0.768 | 1.05 | 0.938 | 0.48 | 0.337 | 0.349 | 0.322 | 0.278 | 0.627 | 0.702 | 0.633 | 0.364 |
| SK-MES-1 | 0.42 | 0.318 | 0.367 | 0.261 | 1.14 | 1.18 | 1.56 | 1.21 | 0.857 | 0.656 | 0.937 | 0.999 | 0.919 | 0.98 | 1.04 | 0.4 | 0.389 | 0.357 | 0.371 | 0.355 |
| SW 1573 | 0.551 | 0.492 | 0.474 | 0.236 | 0.97 | 1.12 | 1.13 | 0.598 | 0.863 | 0.91 | 0.933 | 1 | 0.177 | 0.22 | 0.191 | 0.19 | 0.494 | 0.615 | 0.466 | 0.212 |
| UMC-11 | 0.407 | 0.502 | 0.785 | 0.38 |  | 0.345 | 0.312 | 0.22 | 0.97 | 1.28 | 1.23 | 0.452 | 0.178 | 0.199 | 0.188 | 0.203 | 0.594 | 0.612 | 0.634 | 0.461 |
